According to patent US4914091A, “Esters of cephalosporin derivitives” (American Cyanamid Company, priority 1984, dated 1990):
Read-outs that look alike come from different tables or passages of the source.

Columns and labels:
Klebsiella pneumoniae = assay: In vivo activity against lethal intraperitoneal Klebsiella pneumoniae infection in mice, single oral or subcutaneous dose; set-up: species or system Klebsiella pneumoniae (infection in Charles River CD-1 mice); details: CD-1 mice
Text: Other representative compounds of the present invention were similarly tested against a lethal infection of Klebsiella pneumoniae in mice. Charles River CD-1 mice, each weighing about 20 g, were infected intraperitoneally with a lethal dose of Klebsiella pneumoniae. The median effective doses (ED50) in mg/kg were derived from the pooled data of three separate tests (including two range finding tests). The control, 7β-[2-(2-amino thiazol-4-yl)-(Z)-2-methoximinoacetamido]-3-[(1,2,3-thiadiazol-5-yl)-thiomethyl]ceph-3-em-4-carboxylic acid, provides a basis for comparison. All compounds were administered by single subcutaneous dose and single oral dose.

Escherichia coli No. 311 = assay: In vivo activity against lethal intraperitoneal Escherichia coli No. 311 infection in mice, single oral or subcutaneous dose; set-up: species or system Escherichia coli (infection in Charles River CD-1 mice); details: E. coli No. 311, CD-1 mice; for ED50: Escherichia coli, pooled data of three tests (cefaclor: estimated from two separate tests)
Experimental: To establish the pro-drug activity of, for example, the pivaloyloxymethyl ester of 7β-[2-(2-aminothiazol-4-yl)-(Z)-2-methoximinoacetamido]-3-[(1,2,3-thiadiasol-5-yl)-thiomethyl]ceph-3-em-4-carboxylic acid, the unesterified carboxylic acid and cefaclor (as control) were administered by single subcutaneous dose and single oral dose to separate groups of Charles River CD-1 mice, each weighing about 20 g, which mice had been infected intraperitoneally with a lethal dose of Escherichia coli No. 311. The median effective doses (ED50) in mg/kg were derived from the pooled data of three separate tests (including two range finding tests. The results of this testing appear in Table I.

[1] = single oral dose, pooled data of three tests, (95% Conf. Lim.), read-out: ED50, Single Oral Dose
[2] = sc, single subcutaneous dose, pooled data of three tests, (95% Conf. Lim.), read-out: ED50, Single Subcut. Dose
[3] = sc, single subcutaneous dose, read-out: ED50, Single Subcut. Dose
[4] = single oral dose, read-out: ED50, Single Oral Dose

Compound | Ratio Oral ED50 / Subcutaneous ED50 (Klebsiella pneumoniae) | ED50 (Klebsiella pneumoniae; [1]) | ED50 (Klebsiella pneumoniae; [2]) | Ratio Oral ED50 / Subcutaneous ED50 (Escherichia coli No. 311) | ED50 (Escherichia coli No. 311; [3]) | ED50 (Escherichia coli No. 311; [4]) | ED50, Single Oral Dose (Klebsiella pneumoniae; single oral dose, pooled data of three tests, (95% Conf. Lim.)) | ED50, Single Subcut. Dose (Klebsiella pneumoniae; single subcutaneous dose, pooled data of three tests, (95% Conf. Lim.))
CO/N=C(\C(=O)N[C@@H]1C(=O)N2C(C(=O)OCOC(C)=O)=C(CSc3cnns3)CS[C@H]12)c1csc(N)n1 [Acetoxymethyl, Acetoxymethyl 7β-[2-(2-aminothiazol-4-yl)-(Z)-2-methoximinoacetamido]-3-[(1,2,3-thiadiazol-5-yl)thiomethyl]ceph-3-em-4-carboxylate] | 8 | 8 to 16 mg/kg | 1 to 2 mg/kg |  |  |  |  | 
CO/N=C(\C(=O)N[C@@H]1C(=O)N2C(C(=O)OCOC(=O)C34CC5CC(CC(C5)C3)C4)=C(CSc3cnns3)CS[C@H]12)c1csc(N)n1 [Adamantylcarbonyl-oxymethyl, Adamantane-1-carbonyloxymethyl-7β-[2-(2-aminothiazol-4-yl)-(Z)-2-methoximinoacetamido]-3-[(1,2,3-thiadiazol-5-yl)-thiomethyl]ceph-3-em-4-carboxylate] | 2 | 2 to 4 mg/kg | 1 to 2 mg/kg |  |  |  |  | 
CCCCCCCCCCOCOC(=O)C1=C(CSc2cnns2)CS[C@@H]2[C@H](NC(=O)/C(=N\OC)c3csc(N)n3)C(=O)N12 [Declyoxymethyl ester, Decyloxymethyl 7β-[2-(2-aminothiazol-4-yl)-(Z)-2-methoximinoacetamido]-3-[(1,2,3-thiadiazol-5-yl)-thiomethyl]ceph-3-em-4-carboxylate] | 4 | 8 to 16 mg/kg | 2 to 4 mg/kg |  |  |  |  | 
CCOC(=O)OC(C)OC(=O)C1=C(CSc2cnns2)CS[C@@H]2[C@H](NC(=O)/C(=N\OC)c3csc(N)n3)C(=O)N12 (stereo partly drawn) [Ethoxycarbonyl-Ethoxyethyl ester] | 2 | 1 to 2 mg/kg | 0.5 to 1 mg/kg |  |  |  |  | 
CO/N=C(\C(=O)N[C@@H]1C(=O)N2C(C(=O)OCOC(=O)c3ccccc3)=C(CSc3cnns3)CS[C@H]12)c1csc(N)n1 [benzoyloxymethyl ester, Benzoyloxymethyl 7β-[2-(2-aminothiazol-4-yl)-(Z)-2-methoximinoacetamido]-3-[(1,2,3-thiadiazol-5-yl)-thiomethyl]ceph-3-em-4-carboxylate] | 2 | 4 to 8 mg/kg | 2 to 4 mg/kg |  |  |  |  | 
CCCCCCCCCCCCCC(=O)OCOC(=O)C1=C(CSc2cnns2)CS[C@@H]2[C@H](NC(=O)/C(=N\OC)c3csc(N)n3)C(=O)N12 [Myristoyloxymethyl ester, Myristoyloxymethyl 7β-[2-(2-aminothiazol-4-yl)-(Z)-2-methoximinoacetamido]-3-[(1,2,3-thiadiazol-5-yl)-thiomethyl]ceph-3-em-4-carboxylate] | 16 | 8 to 16 mg/kg | 0.5 to 1 mg/kg |  |  |  |  | 
CO/N=C(\C(=O)N[C@@H]1C(=O)N2C(C(=O)OC(C)OC(C)=O)=C(CSc3cnns3)CS[C@H]12)c1csc(N)n1 (stereo partly drawn) [Acetoxyethyl ester, Acetoxyethyl 7β-[2-(2-aminothiazol-4-yl)-(Z)-2-methoximinoacetamido]-3-[(1,2,3-thiadiazol-5-yl)-thiomethyl]ceph-3-em-4-carboxylate] | 2 | 2 to 4 mg/kg | 1 to 2 mg/kg |  |  |  |  | 
COCOC(=O)C1=C(CSc2cnns2)CS[C@@H]2[C@H](NC(=O)/C(=N\OC)c3csc(N)n3)C(=O)N12 [Methoxymethyl ester, Methoxymethyl 7β-[2-(2-aminothiazol-4-yl)-(Z)-2-methoximinoacetamido]-3-[(1,2,3-thiadiazol-5-yl)-thiomethyl]ceph-3-em-4-carboxylate] | 16 | 8 to 16 mg/kg | 0.5 to 1 mg/kg |  |  |  |  | 
N[C@@H](C(=O)N[C@@H]1C(=O)N2C(C(=O)O)=C(Cl)CS[C@H]12)c1ccccc1 [Cefaclor] |  |  |  | 2.8 | 5.7 mg/kg | 16 mg/kg |  | 
Methylthiomethyl 7β-[2-(2-aminothiazol-4-yl)-(Z)-2-methoximinoacetamido]-3-[(1,2,3-thiadiazol-5-yl)-thiomethyl]ceph-3-em and ceph-2-em-carboxylate [methylthiomethyl ester] | 4 |  |  |  |  |  | 8 to 16 mg/kg | 2 to 4 mg/kg
CO/N=C(\C(=O)N[C@@H]1C(=O)N2C(C(=O)OC3OC(=O)c4ccccc43)=C(CSc3cnns3)CS[C@H]12)c1csc(N)n1 (stereo partly drawn) [Phthalidyl ester, Phthalidyl 7β-[2-(2-aminothiazol-4-yl)-(Z)-2-methoximinoacetamido]-3-[(1,2,3-thiadiazol-5-yl)-thiomethyl]ceph-3-em-4-carboxylate] | 16 | 8 to 16 mg/kg | 0.5 to 1 mg/kg |  |  |  |  | 
CO/N=C(\C(=O)N[C@@H]1C(=O)N2C(C(=O)OCOC(=O)C(C)(C)C)=C(CSc3cnns3)CS[C@H]12)c1csc(N)n1 [Pivaloyloxymethyl ester, Pivaloyloxymethyl 7β-[2-(2-aminothiazol-4-yl)-(Z)-2-methoximinoacetamido]-3-[(1,2,3-thiadiazol-5-yl)-thiomethyl]ceph-3-em-4-carboxylate] |  |  |  | 3.8 | 0.53 mg/kg | 2 mg/kg |  | 
CO/N=C(\C(=O)N[C@@H]1C(=O)N2C(C(=O)O)=C(CSc3cnns3)CS[C@H]12)c1csc(N)n1 [Unesterified acid, 7β-[2-(2-aminothiazol-4-yl)-(Z)-2-methoximinoacetamido]-3-[(1,2,3-thiadiazol-5-yl)-thiomethyl]ceph-3-em-4-carboxylic acid, reference compound] | 16 | 8 to 16 mg/kg | 0.5 to 1 mg/kg | 28 | 0.26 mg/kg | 7.2 mg/kg |  | 
